# Experiments:
# [1] = molecular target: T1, EGFP-AKT and mCherry-β-catenin (Mus musculus, UniProt Q02248); experiment: FRET assay (acceptor photobleaching) of Akt/β-catenin interaction in 293T cells; assay type: cell-based; details: 25, 50, 100, 200 nM; vehicle 2.24%
# T1 construct: host or cells: 293T cells
# T1 sequence (Q02248 1-781): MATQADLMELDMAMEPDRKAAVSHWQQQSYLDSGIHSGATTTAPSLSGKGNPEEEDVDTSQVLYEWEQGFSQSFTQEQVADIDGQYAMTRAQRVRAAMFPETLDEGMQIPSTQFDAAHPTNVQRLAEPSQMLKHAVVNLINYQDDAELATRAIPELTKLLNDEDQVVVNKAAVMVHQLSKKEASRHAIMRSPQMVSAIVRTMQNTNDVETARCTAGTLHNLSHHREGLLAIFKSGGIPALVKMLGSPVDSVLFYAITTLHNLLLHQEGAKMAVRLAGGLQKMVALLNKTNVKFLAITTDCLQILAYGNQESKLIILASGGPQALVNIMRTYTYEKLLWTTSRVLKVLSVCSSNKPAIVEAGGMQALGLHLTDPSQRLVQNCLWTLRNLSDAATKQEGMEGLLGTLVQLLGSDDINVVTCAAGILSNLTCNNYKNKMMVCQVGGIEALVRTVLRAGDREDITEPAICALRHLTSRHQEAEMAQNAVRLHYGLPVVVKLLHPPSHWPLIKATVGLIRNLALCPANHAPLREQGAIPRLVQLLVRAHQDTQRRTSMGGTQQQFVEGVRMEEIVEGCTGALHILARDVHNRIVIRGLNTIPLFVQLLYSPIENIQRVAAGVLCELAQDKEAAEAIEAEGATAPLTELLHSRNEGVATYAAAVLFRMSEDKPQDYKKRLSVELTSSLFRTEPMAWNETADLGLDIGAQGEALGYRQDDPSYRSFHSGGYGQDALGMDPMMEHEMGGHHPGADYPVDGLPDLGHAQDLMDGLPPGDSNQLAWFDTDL
# Description: FRET measurement was performed by using the acceptor photobleaching method. […] A Perkin-Elmer Ultraview spinning disc system with a CSU-X1 Yokogawa disc was used for imaging. A 40X 1.2 NA Plan-apochromatic objective was used, and emission was collected onto a C9100 Hamamatsu Photonics EM-CCD. EGFP was excited with a 488 nm laser, and emission was collected through a 500-555 nm band pass filter. mCherry was illuminated, and photobleached, with a 561 nm laser. Emission of mCherry was collected with a 580-650 nm band pass filter. 6 images of EGFP were acquired before and 8 images after bleaching of the mCherry with intense 561 nm light. After subtraction of camera background, the average intensity of EGFP in a region of interest spanning the bleached cell was determined in the 4 images before acceptor bleach (I1), or the 4 images after acceptor bleach (I2). FRET efficiency is reported as 1−(I1/I2). Calculations were based on >500 cell images.
# To test whether DXR could block interaction between Akt and β-catenin, Fluorescence Resonance Energy Transfer (FRET) analysis using EGFP-AKT and mCherry-β-catenin transfected cells was performed.
# [2] = tested on: T-ALL blast cells, LSCs and HSPCs of leukemic Pten:β-cat^Act mice; experiment: Flow cytometry of BM of treated leukemic mice (blast cells, LSCs, HSPCs); assay type: in vivo, mouse; details: 10 days post-treatment
# Description: Leukemic mice were treated with vehicle, chemotherapy, [Low]DXR or chemotherapy+[Low]DXR as described in FIG. 3a. a-c, At 10 days post-treatment, BM was analyzed by flow cytometry to determine frequency of blast cells (a), LSCs (b) and HSPCs (c). Shown are representative plots. d, Average frequency±SD of each population from a-c (n≥6 per group). e, Limiting-dilution assays to determine CRU frequency were performed on blast cells and LSCs sorted from chemotherapy treated leukemic mice and on HSPCs sorted from [Low]DXR treated mice. Engraftment 1% blast cells) was determined in NSG recipients at 10-12 weeks post-transplant.
# Whole bone marrow was isolated from uninduced HSC-SCL-Cre^+ Pten^fx/fx βcat^fx(Exon3)/+ (Pten:β-cat^Act) mice and combined with an equal portion of Cre negative bone marrow from a littermate and transplanted into irradiated (10 Gy) B6.SJL-Ptprc^a Pepc^b/BoyJ (Ptprc) recipients.
# (§1) Chemotherapy consisted of Nelarabine (Selleck) and Dexamethasone (BioVision) administered daily for 5 days consecutively. 43.4 mg/ml Nelarabine was administered intravenously via the tail vain according to the formula: Body Weight (g)×5=volume to inject (μl), which yielded 217 mg/kg. 2.5 mg/ml Dexamethasone was injected intraperitoneally according to the formula: Body Weight (g)×4=volume to inject (μl), yielding 10 mg/kg. […] [Low]NanoDXR (also referred to as [Low]NanoDoxo throughout) treatment used doxorubicin nanoparticles as described in International Patent Publication WO 2015/054269 (incorporated by reference in its entirety) administered as a single IV injection once per week on day 1 relative to above treatments using 0.8 mg/kg. Maintenance [Low]NanoDXR consisted of once per week injections of 0.4 mg/kg. Groups combining Nelarabine with Doxorubicin used a single injection containing both drugs. All drugs were solubilized in 45% (2-Hydroxypropyl)-β-cyclodextrin (HBC).
# Cells were collected from bone marrow (femur and tibia), spleen, peripheral blood, and thymus. For cell surface phenotyping, a lineage cocktail (Lin) was used including CD3 (for HSPC but not LSC analysis), CD4, CD8, Mac-1, Gr1, B220, IgM, and Ter119 (eBioscience, San Diego, Calif.). Monoclonal antibodies against CD3 (separate fluorophore for LSC analysis), Sca-1, c-Kit, CD45.1, and CD45.2 were also used where indicated. Cell sorting and analysis were performed using an inFlux (BD), MoFlo (Dako, Ft. Collins, Colo.) and/or CyAn ADP (Dako, Ft. Collins, Colo.). Data analysis was performed using FlowJo software (Ashland, Oreg.).
# [3] = tested on: tumorigenic cells (functional LSCs) in BM of treated leukemic mice; experiment: Tumorigenic assay: BM of treated leukemic mice transplanted into NSG recipients; assay type: in vivo, mouse
# Description: At 12 days post-treatment, BM was harvested from treated mice and transplanted into sub-lethally irradiated NSG recipients. a, Treatment schematic and Kaplan-Meier curves of recipient mice. b, Recipients of BM from [Low]DXR only treated leukemic mice were analyzed by flow cytometry at 6 months post-transplant. […] Dashed line indicates day of final [Low]nanoDXR treatment. f, Surviving [Low]nanoDXR treated mice were analyzed by flow cytometry at 230 days post-treatment.
# At 12 days post-treatment, BM was harvested from treated mice and transplanted into sub-lethally irradiated NSG recipients. a, Treatment schematic and Kaplan-Meier curves of recipient mice.
# Tumorigenic assays were performed by transplanting 0.5, 1.5, or 4.5×10^4 bone marrow cells from treated mice at 12 days post-treatment into 3.25 Gy irradiated NSG recipient mice. 10 recipients were used for each dose from each group. One male and one female donor was used for each group. Leukemia was assessed in mice euthanized due to poor health by analyzing CD45^Hi CD3^+ cell frequency. Mice having >20% Blasts in the bone marrow were considered leukemic.
# A cohort of mice was established as in FIG. 3a. One week after completion of treatment with vehicle, chemotherapy, [Low]DXR, or chemotherapy+[Low]DXR, we transplanted BM from treated mice into irradiated NSG recipients to test for tumorigenic cells.
# [4] = tested on: leukemic Pten:β-cat^Act (T-ALL) mice; experiment: Long-term survival of treated leukemic mice; assay type: in vivo, mouse; details: single treatment cycle, no transplantation
# Description: as §1
# [5] = tested on: LSCs and HSPCs of leukemic Pten:β-catAct mice; experiment: Example 6: LSCs and HSPCs in BM of leukemic mice, Doxo vs NanoDoxo vs Doxil with chemotherapy; assay type: in vivo, mouse; details: Doxo 0.5 mg/kg x5 daily, NanoDoxo or Doxil single 0.8 mg/kg, BM 5-6 days after treatment
# Description: All drugs were solubilized in 45% (2-Hydroxypropyl)-β-cyclodextrin (HBC).
# pS^552-β-catenin = experiment: Western analysis of pS552-β-catenin in compound-treated TOP and FOP cells; details: TOP and FOP cells treated 48 hours at EC90, EC50, EC25
# Description: Cytotoxicity profiles (CTG) of compounds were also determined. […] TOP and FOP cells were treated with candidate compounds at EC90, EC50 and EC25 derived from (b) for 48 hours, washed and flash frozen for Western analysis (c).
# Activity of compounds was tested against HEK-TOP cells vs. HEK FOP cells for inhibition of luciferase activity. The cytotoxicity profiles of the compounds were also tested using Cell Titer Glo assay (Promega) on HEK-TOP cell lines. […] The HEK cells and HEK Top cells were plated at 300,000 cells/well in 6 well plates and were treated in duplicate with EC90, EC50 and EC25 concentrations of the 25 repurchased compounds as well as three controls. After 48 h of exposure, the cells were washed with PBS and flash frozen. The frozen cells were lysed directly in plates for Western analysis.
smiles,measurement,setting,value
"COc1cccc2c1C(=O)c1c(O)c3c(c(O)c1C2=O)C[C@@](O)(C(=O)CO)C[C@@H]3O[C@H]1C[C@H](N)[C@H](O)[C@H](C)O1 [DXR, doxorubicin]",FRET efficiency between EGFP-AKT and mCherry-β-catenin,[1],decreased with increasing concentrations of DXR
same,"LSC reduction, free DXR 5 doses of 0.15 μg/g",[2]; 5 daily injections 0.15 μg/g,ineffective
same,HSPCs in BM vs vehicle,[2]; [Low]DXR 0.5 mg/kg daily x5,allowed significant recovery of HSPCs
same,LSCs in BM vs vehicle,[2]; [Low]DXR 0.5 mg/kg daily x5,significantly reduced LSCs compared to vehicle
same,blast cells in BM vs vehicle,[2]; [Low]DXR 0.5 mg/kg daily x5,did not significantly reduce blast cells
same,"blast cells in BM, [Low]DXR in combination with dexamethasone",[2]; [Low]DXR with Dexa.,does not act as a traditional chemotherapeutic
same,"blast cells in BM, clinical equivalent (normal) dose DXR",[2]; normal dose DXR (8x higher than [Low]) with Dexa.,acted similar to chemotherapy in their reduction
same,"blast cells, LSCs and HSPCs in surviving recipients",[3]; 6 months post-transplant,"only trace levels of blast cells and LSCs, and HSPCs were within normal parameters"
same,recipients remaining healthy nearly 6 months post-transplant,[3]; recipients of BM from treated leukemic mice,29/30
same,survival of treated leukemic mice,[4],only minor and insignificant improvement
same,HSPC recovery in BM,[5],facilitates recovery of HSPCs
same,LSCs in BM,[5],prevents this expansion
same,inhibition of pS552-β-catenin (Western),pS^552-β-catenin,effectively inhibited pS^552-β-catenin
